Laboratory results from patent US6737383B1, “Herbicidal oxadiazolidines” (priority 1999, dated 2004).

What was measured:
[1] = system: common pursiane; assay: Test D common purslane; format: in vivo, Portulaca oleracea; conditions: Postemergence, 0 to 100 scale
[2] = system: Green foxtail; assay: Test D green foxtail; format: in vivo; conditions: Postemergence, 0 to 100 scale, 0 no injury, 100 complete control
[3] = system: Green foxtail; assay: Test D green foxtail; format: in vivo; conditions: Postemergence, 0 to 100 scale, 0 no injury, 100 complete control; remark: listed apart in the source
[4] = system: surinam grass; assay: Test D surinam grass; format: in vivo, Brachiaria decumbens; conditions: Postemergence, 0 to 100 scale
[5] = system: Johnson grass; assay: Test D Johnson grass; format: in vivo, Sorghum halepense; conditions: Postemergence, 0 to 100 scale
[6] = system: Green foxtail; assay: Test D green foxtail; format: in vivo; conditions: Postemergence, 0 to 100 scale, 0 no injury, 100 complete control; remark: listed apart in the source
[7] = system: tall mallow; assay: Test D tall mallow; format: in vivo, Malva sylvestris; conditions: Postemergence, 0 to 100 scale
[8] = system: common ragweed; assay: Test D common ragweed; format: in vivo, Ambrosia elatior; conditions: Postemergence, 0 to 100 scale
[9] = system: guineagrass; assay: Test D guineagrass; format: in vivo, Panicum maximum; conditions: Postemergence, 0 to 100 scale
[10] = system: itchgrass; assay: Test D itchgrass; format: in vivo, Rottboellia exaltata; conditions: Postemergence, 0 to 100 scale
[11] = system: goosegrass; assay: Test D goosegrass; format: in vivo, Eleusine indica; conditions: Postemergence, 0 to 100 scale
[12] = system: sandbur; assay: Test D sandbur; format: in vivo, Cenchrus echinatus; conditions: Postemergence, 0 to 100 scale
[13] = system: purple nutsedge; assay: Test D purple nutsedge; format: in vivo, Cyperus rotundus; conditions: Postemergence, 0 to 100 scale
[14] = Rate 16 g/ha, 0 no injury, 100 complete control
[15] = Rate 32 g/ha, 0 no injury, 100 complete control
[16] = Rate 64 g/ha, 0 no injury, 100 complete control
[17] = Rate 125 g/ha, 0 no injury, 100 complete control

COCC(C)n1c(=O)on(C(=O)N(c2ccc(F)cc2F)C(C)C)c1=O (centres unmarked) [Compound 357]
Plant response rating, C. purslane [1, 14]: 0 | Plant response rating, C. purslane [1, 15]: 0 | Plant response rating, C. purslane [1, 16]: 0 | Plant response rating, C. purslane [1, 17]: 0 | Plant response rating, C. purslane ([1]; Rate 250 g/ha): 0 | Plant response rating, Green foxtail ([2]; Rate 64 g/ha): 100 | Plant response rating, Green foxtail ([2]; Rate 125 g/ha): 100 | Green foxtail plant response rating ([3]; Rate 64 g/ha): 100 | Green foxtail plant response rating ([3]; Rate 125 g/ha): 100 | Plant response rating, Surinam grass [4, 14]: 0 | Plant response rating, Surinam grass [4, 15]: 20 | Surinam grass plant response rating [4, 16]: 80 | Surinam grass plant response rating [4, 17]: 100 | Plant response rating, Surinam grass ([4]; Rate 250 g/ha): 100 | Plant response rating, Johnsongrass [5, 14]: 0 | Plant response rating, Johnsongrass [5, 15]: 0 | Plant response rating, Johnsongrass [5, 16]: 0 | Plant response rating, Johnsongrass [5, 17]: 60 | Plant response rating, Johnsongrass ([5]; Rate 250 g/ha): 90 | Plant response rating, Green foxtail ([6]; Rate 16 g/ha): 10 | Plant response rating, Green foxtail ([6]; Rate 32 g/ha): 30 | Plant response rating, Tall Mallow [7, 14]: 10 | Plant response rating, Tall Mallow [7, 15]: 10 | Tall Mallow plant response rating [7, 16]: 20 | Tall Mallow plant response rating [7, 17]: 50 | Plant response rating, Tall Mallow ([7]; Rate 250 g/ha): 100 | Plant response rating, C. ragweed [8, 14]: 0 | Plant response rating, C. ragweed [8, 16]: 0 | Plant response rating, C. ragweed [8, 17]: 0 | Plant response rating, C. ragweed ([8]; Rate 250 g/ha): 50 | Plant response rating, Guineagrass [9, 14]: 0 | Plant response rating, Guineagrass [9, 15]: 0 | Guineagrass plant response rating [9, 16]: 60 | Plant response rating, Guineagrass [9, 16]: 20 | Plant response rating, Guineagrass [9, 17]: 70 | Plant response rating, Guineagrass ([9]; Rate 250 g/ha): 100 | Plant response rating, Itchgrass [10, 14]: 0 | Plant response rating, Itchgrass [10, 15]: 0 | Plant response rating, Itchgrass [10, 16]: 0 | Plant response rating, Itchgrass [10, 17]: 30 | Plant response rating, Itchgrass ([10]; Rate 250 g/ha): 50 | Plant response rating, Goosegrass [11, 14]: 90 | Plant response rating, Goosegrass [11, 15]: 100 | Plant response rating, Goosegrass [11, 16]: 100 | Plant response rating, Goosegrass [11, 17]: 100 | Plant response rating, Goosegrass ([11]; Rate 250 g/ha): 100 | Plant response rating, Sandbur [12, 14]: 0 | Plant response rating, Sandbur [12, 15]: 0 | Sandbur plant response rating [12, 16]: 0 | Sandbur plant response rating [12, 17]: 0 | Plant response rating, Sandbur ([12]; Rate 250 g/ha): 100 | Plant response rating, Purple nutsedge [13, 14]: 0 | Plant response rating, Purple nutsedge [13, 15]: 0 | Purple nutsedge plant response rating [13, 16]: 0 | Purple nutsedge plant response rating [13, 17]: 0 | Plant response rating, Purple nutsedge ([13]; Rate 250 g/ha): 50

CCC(CC)n1c(=O)on(C(=O)N(c2ccc(F)cc2)C(C)C)c1=O [Compound 358]
Plant response rating, C. purslane [1, 14]: 0 | Plant response rating, C. purslane [1, 15]: 0 | Plant response rating, C. purslane [1, 16]: 0 | Plant response rating, C. purslane [1, 17]: 0 | Plant response rating, C. purslane ([1]; Rate 250 g/ha): 0 | Plant response rating, Green foxtail ([2]; Rate 64 g/ha): 100 | Plant response rating, Green foxtail ([2]; Rate 125 g/ha): 100 | Green foxtail plant response rating ([3]; Rate 64 g/ha): 100 | Green foxtail plant response rating ([3]; Rate 125 g/ha): 100 | Plant response rating, Surinam grass [4, 14]: 0 | Plant response rating, Surinam grass [4, 15]: 0 | Surinam grass plant response rating [4, 16]: 0 | Surinam grass plant response rating [4, 17]: 50 | Plant response rating, Surinam grass ([4]; Rate 250 g/ha): 50 | Plant response rating, Johnsongrass [5, 14]: 0 | Plant response rating, Johnsongrass [5, 15]: 0 | Plant response rating, Johnsongrass [5, 16]: 0 | Plant response rating, Johnsongrass [5, 17]: 0 | Plant response rating, Johnsongrass ([5]; Rate 250 g/ha): 100 | Plant response rating, Green foxtail ([6]; Rate 16 g/ha): 0 | Plant response rating, Green foxtail ([6]; Rate 32 g/ha): 30 | Plant response rating, Tall Mallow [7, 14]: 0 | Plant response rating, Tall Mallow [7, 15]: 30 | Tall Mallow plant response rating [7, 16]: 50 | Tall Mallow plant response rating [7, 17]: 70 | Plant response rating, Tall Mallow ([7]; Rate 250 g/ha): 80 | Plant response rating, C. ragweed [8, 14]: 0 | Plant response rating, C. ragweed [8, 15]: 0 | Plant response rating, C. ragweed [8, 16]: —30 | Plant response rating, C. ragweed [8, 17]: 70 | Plant response rating, C. ragweed ([8]; Rate 250 g/ha): 70 | Plant response rating, Guineagrass [9, 14]: 0 | Plant response rating, Guineagrass [9, 15]: 0 | Guineagrass plant response rating [9, 16]: 20 | Plant response rating, Guineagrass [9, 16]: 100 | Plant response rating, Guineagrass [9, 17]: 100 | Plant response rating, Guineagrass ([9]; Rate 250 g/ha): 100 | Plant response rating, Itchgrass [10, 14]: 0 | Plant response rating, Itchgrass [10, 15]: 0 | Plant response rating, Itchgrass [10, 16]: 0 | Plant response rating, Itchgrass [10, 17]: 0 | Plant response rating, Itchgrass ([10]; Rate 250 g/ha): 100 | Plant response rating, Goosegrass [11, 14]: 0 | Plant response rating, Goosegrass [11, 15]: 20 | Plant response rating, Goosegrass [11, 16]: 100 | Plant response rating, Goosegrass [11, 17]: 100 | Plant response rating, Goosegrass ([11]; Rate 250 g/ha): 100 | Plant response rating, Sandbur [12, 14]: 0 | Plant response rating, Sandbur [12, 15]: 20 | Sandbur plant response rating [12, 16]: 100 | Sandbur plant response rating [12, 17]: 100 | Plant response rating, Sandbur ([12]; Rate 250 g/ha): 90 | Plant response rating, Purple nutsedge [13, 14]: 0 | Plant response rating, Purple nutsedge [13, 15]: 0 | Purple nutsedge plant response rating [13, 16]: 0 | Purple nutsedge plant response rating [13, 17]: 0 | Plant response rating, Purple nutsedge ([13]; Rate 250 g/ha): 10
